Reference: PubChem BioAssay AID248 (DTP/NCI, 2004)
“And” between values parts separate entries of the source, which are not always exact repeats. Identical values can stand only once. Inconclusive results and toxic doses are left out. Cut-off read from the data, not from the text of the source: active = T/C of 150% or more; inactive = T/C below 125%.

Test system: L1210 leukemia ip in BDF1 mice, survival T/C
Assay: NCI In Vivo Anticancer Drug Screen. Data for tumor model L1210 Leukemia (intraperitoneal) in B6D2F1 (BDF1) mice
Conditions: endpoint: mean survival time, higher = longer survival
Procedure, shortened: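 Each compound was tested against a transplantable tumor grown in mice. The endpoint was survival, with treated animals benchmarked against vehicle controls as a simple ratio.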

[1] = dose: 100.0 mg/kg/injection, schedule: Q01DX009 (ip), vehicle: saline with Tween-80
[2] = dose: 100.0 mg/kg/injection, schedule: Q04DX003 (ip), vehicle: Klucel (hydroxypropylcellulose) (HPC)
[3] = dose: 200.0 mg/kg/injection, schedule: Q01DX009 (ip), vehicle: saline with Tween-80
[4] = dose: 400.0 mg/kg/injection, schedule: Q01DX009 (ip), vehicle: saline with Tween-80
[5] = dose: 50.0 mg/kg/injection, schedule: Q01DX001 (ip), vehicle: saline
[6] = dose: 100.0 mg/kg/injection, schedule: Q01DX001 (ip), vehicle: saline
[7] = dose: 200.0 mg/kg/injection, schedule: Q01DX001 (ip), vehicle: saline
[8] = dose: 400.0 mg/kg/injection, schedule: Q01DX001 (ip), vehicle: saline
[9] = dose: 600.0 mg/kg/injection, schedule: Q01DX001 (ip), vehicle: saline
[10] = dose: 100.0 mg/kg/injection, schedule: Q01DX001 (ip), vehicle: carboxymethylcellulose (CMC)
[11] = dose: 200.0 mg/kg/injection, schedule: Q01DX001 (ip), vehicle: carboxymethylcellulose (CMC)
[12] = dose: 400.0 mg/kg/injection, schedule: Q01DX001 (ip), vehicle: carboxymethylcellulose (CMC)
[13] = dose: 100.0 mg/kg/injection, schedule: Q04DX003 (ip), vehicle: saline with Tween-80
[14] = dose: 200.0 mg/kg/injection, schedule: Q04DX003 (ip), vehicle: saline with Tween-80
[15] = dose: 400.0 mg/kg/injection, schedule: Q04DX003 (ip), vehicle: saline with Tween-80

Measured: T/C

Cc1[nH]c(=S)[nH]c(=O)c1CCC(=O)O
inactive: [1] 96 % of control | [2] 94 % of control | [3] 98 % of control | dose: 200.0 mg/kg/injection, schedule: Q04DX003 (ip), vehicle: Klucel (hydroxypropylcellulose) (HPC) 102 % of control | [4] 98 % of control | dose: 400.0 mg/kg/injection, schedule: Q04DX003 (ip), vehicle: Klucel (hydroxypropylcellulose) (HPC) 102 % of control

CCCC(C)c1ccc(N=NC2C(=O)c3ccccc3C2=O)cc1 (stereo not given)
inactive: [5] 100 % of control | [6] 94 % of control | [7] 94 % of control | [8] 103 % of control

CCN(CC)CCNC(=O)c1cc(N2CCOCC2)ccn1
inactive: [6] 108 % of control | [7] 102 % of control

CC(C)CCSc1nc(N)nc2nc[nH]c12
inactive: dose: 62.5 mg/kg/injection, schedule: Q01DX Z (ip), vehicle: carboxymethylcellulose (CMC) 122 % of control | dose: 125.0 mg/kg/injection, schedule: Q01DX Z (ip), vehicle: carboxymethylcellulose (CMC) 107 % of control | dose: 250.0 mg/kg/injection, schedule: Q01DX Z (ip), vehicle: carboxymethylcellulose (CMC) 100 % of control

N#CCCN(CCC#N)C(=O)Cl
inactive: dose: 100.0 mg/kg/injection, schedule: Q01DX001 (sc), vehicle: olive oil, sesame oil, peanut oil 97 % of control | dose: 200.0 mg/kg/injection, schedule: Q01DX001 (sc), vehicle: olive oil, sesame oil, peanut oil 97 % of control | dose: 400.0 mg/kg/injection, schedule: Q01DX001 (sc), vehicle: olive oil, sesame oil, peanut oil 98 % of control

CN=C(NN)NCCO
inactive: dose: 175.0 mg/kg/injection, schedule: Q01DX001 (ip), vehicle: saline 96 % of control | dose: 265.0 mg/kg/injection, schedule: Q01DX001 (ip), vehicle: saline 96 % of control | [8] 110 % of control | [9] 98 % of control

CCCCCC(O)(CCCC)CCCC
inactive: [10] 104 % of control | [11] 107 % of control | [12] 102 % of control

COc1ccccc1-n1c(=O)c(N=Nc2ccc(Cl)cc2)c(O)n(-c2ccccc2Cl)c1=S
inactive: dose: 50.0 mg/kg/injection, schedule: Q01DX001 (ip), vehicle: Klucel (hydroxypropylcellulose) (HPC) 94 % of control | dose: 100.0 mg/kg/injection, schedule: Q01DX001 (ip), vehicle: Klucel (hydroxypropylcellulose) (HPC) 101 % of control | dose: 200.0 mg/kg/injection, schedule: Q01DX001 (ip), vehicle: Klucel (hydroxypropylcellulose) (HPC) 92 % of control

Oc1ccc2ccccc2c1N=Nc1ccccn1
inactive: dose: 25.0 mg/kg/injection, schedule: Q04DX002 (ip), vehicle: saline with Tween-80 101 % of control | dose: 50.0 mg/kg/injection, schedule: Q04DX002 (ip), vehicle: saline with Tween-80 98 % of control | dose: 100.0 mg/kg/injection, schedule: Q04DX002 (ip), vehicle: saline with Tween-80 95 % of control

Clc1nc2nnnn2c2ccccc12
inactive: dose: 20.0 mg/kg/injection, schedule: Q04DX003 (ip), vehicle: saline 101 % of control | dose: 40.0 mg/kg/injection, schedule: Q04DX003 (ip), vehicle: saline 101 % of control | dose: 80.0 mg/kg/injection, schedule: Q04DX003 (ip), vehicle: saline 104 % of control

Cc1cc(C)c(C2CC3CCC2C3)cc1N (stereo not given)
inactive: dose: 25.0 mg/kg/injection, schedule: Q04DX002 (ip), vehicle: Klucel (hydroxypropylcellulose) (HPC) 100 % of control | dose: 50.0 mg/kg/injection, schedule: Q04DX002 (ip), vehicle: Klucel (hydroxypropylcellulose) (HPC) 100 % of control | dose: 100.0 mg/kg/injection, schedule: Q04DX002 (ip), vehicle: Klucel (hydroxypropylcellulose) (HPC) 100 % of control | [2] 90 % of control | dose: 200.0 mg/kg/injection, schedule: Q04DX002 (ip), vehicle: saline 96 % of control

O=P(CCCl)(OCCCl)OCCCl
inactive: [13] 94 % of control | [14] 109 % of control | [15] 109 % of control

CCCCCCCCCCCCCC(=O)CCC
inactive: [1] 106 % of control | [13] 86 % of control | [3] 100 % of control | [14] 110 % of control | [4] 104 % of control | [15] 100 % of control

CCC(=O)O[C@H]1CC[C@H]2[C@@H]3CC[C@H]4CC(=O)[C@H](C)C[C@]4(C)[C@H]3CC[C@]12C
inactive: dose: 44.13 mg/kg/injection, schedule: Q01DX Z (sc), vehicle: steriod suspending solution 96 % of control | dose: 88.25 mg/kg/injection, schedule: Q01DX Z (sc), vehicle: steriod suspending solution 104 % of control | dose: 176.5 mg/kg/injection, schedule: Q01DX Z (sc), vehicle: steriod suspending solution 103 % of control | dose: 353.0 mg/kg/injection, schedule: Q01DX Z (sc), vehicle: steriod suspending solution 100 % of control

C=C(CC(N)=O)C(=O)O (tested in a mixture with another compound)
inactive: dose: 6.25 mg/kg/injection, schedule: Q01DX009 (ip), vehicle: saline 97 % of control | dose: 12.5 mg/kg/injection, schedule: Q01DX009 (ip), vehicle: saline 100 % of control | dose: 20.0 mg/kg/injection, schedule: Q01DX009 (ip), vehicle: saline 105 % of control | dose: 25.0 mg/kg/injection, schedule: Q01DX009 (ip), vehicle: saline 105 % of control | dose: 35.0 mg/kg/injection, schedule: Q01DX009 (ip), vehicle: saline 94 % of control | [5] 107 % of control | dose: 50.0 mg/kg/injection, schedule: Q01DX009 (ip), vehicle: saline 106 % of control | dose: 65.0 mg/kg/injection, schedule: Q01DX009 (ip), vehicle: saline 102 % of control | [6] 118 % of control | dose: 100.0 mg/kg/injection, schedule: Q01DX009 (ip), vehicle: saline 111 % of control | dose: 125.0 mg/kg/injection, schedule: Q01DX009 (ip), vehicle: saline 119 % of control | dose: 177.0 mg/kg/injection, schedule: Q01DX001 (ip), vehicle: saline 110 % of control | [7] 107 % of control | dose: 200.0 mg/kg/injection, schedule: Q01DX009 (ip), vehicle: saline 111 % of control | dose: 266.0 mg/kg/injection, schedule: Q01DX001 (ip), vehicle: saline 124 % of control | dose: 270.0 mg/kg/injection, schedule: Q01DX001 (ip), vehicle: saline 110 % of control | dose: 270.0 mg/kg/injection, schedule: Q01DX009 (ip), vehicle: saline 120 % of control and 123 % of control | [8] 111 % of control | dose: 400.0 mg/kg/injection, schedule: Q01DX009 (ip), vehicle: saline 101 % of control and 111 % of control and 117 % of control | [9] 114 % of control | dose: 600.0 mg/kg/injection, schedule: Q01DX009 (ip), vehicle: saline 113 % of control | dose: 800.0 mg/kg/injection, schedule: Q01DX001 (ip), vehicle: saline 122 % of control | dose: 1000.0 mg/kg/injection, schedule: Q01DX001 (ip), vehicle: saline 113 % of control

N#CSCCOCCSC#N
inactive: dose: 5.0 mg/kg/injection, schedule: Q01DX001 (ip), vehicle: saline 108 % of control | dose: 10.0 mg/kg/injection, schedule: Q01DX001 (ip), vehicle: saline 96 % of control

CCCCCCCOc1ccc(C2=C(c3ccccc3)C(=O)C(c3ccccc3)=C2c2ccccc2)cc1
inactive: [10] 100 % of control | [11] 100 % of control | [12] 94 % of control
